Legend:
Format in all cases: cell-based
keratinocytes (HaCaT) = test: Safety, MTT test in keratinocytes; conditions: 48 hours
Experimental: (§1) In order to test the safety of the compounds, both normal human cells were used: keratinocytes (HaCaT), fibroblasts (BJ), primary melanocytes that occur in the skin, as well as human cancer cells: the hepatocarcinoma line HepG2 and the neuroblastoma line SH-SY5Y, which are considered a model for the assessment of hepatocytotoxicity and neurocytotoxicity. The concentrations of the tested compounds in the range of […] were used in the studies. The cell lines used in the research were purchased from the American Type Culture Collection (ATCC) and were cultured in media recommended by the manufacturer with the addition of FBS and antibiotics in an incubator ensuring appropriate culture conditions, i.e. humidity, temperature and CO2 concentration. Cells were seeded into multiwell plates and incubated with the test compounds for 48 hours. After this time, MTT and LDH tests were performed to assess cell viability. The MTT test is based on the ability to transform the substrate: [3-(4,5-dimethyl-2-thiazolyl)-2,5-diphenyl-2H-tetrazolium bromide into a colored product only by living cells. The absorbance at 570 nm, which corresponds to the absorption maximum for the product, is directly proportional to cell viability. The LDH test is based on testing the activity of the enzyme lactate dehydrogenase in the culture medium, which is released from cells as a result of damage to the cell membrane, e.g. as a result of cell death. Triton X-100 was used as a positive control in the test. The determination is colorimetric, the substrate is transformed by the released enzyme into a colored product, an increase in absorbance indicates a larger amount of the released enzyme, and thus confirms greater damage to cell membranes. Tables 7 and 8 present the results obtained, which correspond to the viability of cells incubated with the compounds in relation to the viability of cells constituting a control sample, i.e. incubated with the solvent (DMSO) at the same concentration as in the case of the groups tested in the MTT test or in relation to the results obtained for the Triton X-100 positive control in the LDH test. They indicate that the compounds are safe at the concentrations tested.

fibroblasts (BJ) = test: Safety, LDH test in fibroblasts; conditions: 48 hours, vs Triton X-100
Experimental: as §1

primary melanocytes [1] = test: Safety, MTT test in primary melanocytes; conditions: 48 hours
Experimental: as §1

primary melanocytes [2] = test: Safety, LDH test in primary melanocytes; conditions: 48 hours, vs Triton X-100
Experimental: as §1

hepatocarcinoma HepG2 [3] = test: Safety, MTT test in HepG2; conditions: 48 hours
Experimental: as §1

hepatocarcinoma HepG2 [4] = test: Safety, LDH test in HepG2; conditions: 48 hours, vs Triton X-100
Experimental: as §1

neuroblastoma SH-SY5Y [5] = test: Safety, MTT test in SH-SY5Y; conditions: 48 hours
Experimental: as §1

neuroblastoma SH-SY5Y [6] = test: Safety, LDH test in SH-SY5Y; conditions: 48 hours, vs Triton X-100
Experimental: as §1

In the case of `O=C(/C=C/c1ccc(Cl)cc1)NCCCO` [H-330/21, (2E)-3-(4-chlorophenyl)-N-(3-hydroxypropyl)prop-2-enamide], the “MTT, Keratinocytes (HaCaT)” value (keratinocytes (HaCaT); 100 μM) was 102.03 ± 1.45 % of solvent control, the “MTT, Keratinocytes (HaCaT)” value (keratinocytes (HaCaT); 150 μM) was 101.42 ± 2.04 % of solvent control and the “MTT, Keratinocytes (HaCaT)” value (keratinocytes (HaCaT); 200 μM) was 97.07 ± 2.81 % of solvent control. The “MTT, Keratinocytes (HaCaT)” value (keratinocytes (HaCaT); 250 μM) was 94.89 ± 1.06 % of solvent control, the “LDH, Fibroblasts (BJ)” value (fibroblasts (BJ); 100 μM) was 4.74 percentage of positive control and the “LDH, Fibroblasts (BJ)” value (fibroblasts (BJ); 150 μM) was 6.50 percentage of positive control. For the same compound, the “LDH, Fibroblasts (BJ)” value (fibroblasts (BJ); 200 μM) was 14.25 percentage of positive control, the “LDH, Fibroblasts (BJ)” value (fibroblasts (BJ); 250 μM) was 28.74 percentage of positive control and the “MTT, Primary melanocytes” value (primary melanocytes [1]; 100 μM) was 101.42 ± 2.21 % of solvent control. The “MTT, Primary melanocytes” value (primary melanocytes [1]; 150 μM) was 97.02 ± 4.49 % of solvent control, the “MTT, Primary melanocytes” value (primary melanocytes [1]; 200 μM) was 93.78 ± 2.29 % of solvent control and the “MTT, Primary melanocytes” value (primary melanocytes [1]; 250 μM) was 90.27 ± 2.25 % of solvent control. For the same compound, the “LDH, Primary melanocytes” value (primary melanocytes [2]; 100 μM) was 5.63 percentage of positive control, the “LDH, Primary melanocytes” value (primary melanocytes [2]; 150 μM) was 13.09 percentage of positive control and the “LDH, Primary melanocytes” value (primary melanocytes [2]; 200 μM) was 10.91 percentage of positive control. The “LDH, Primary melanocytes” value (primary melanocytes [2]; 250 μM) was 18.10 percentage of positive control, the “MTT, Hepatocarcinoma HepG2” value (hepatocarcinoma HepG2 [3]; 100 μM) was 100.73 ± 4.51 % of solvent control and the “MTT, Hepatocarcinoma HepG2” value (hepatocarcinoma HepG2 [3]; 150 μM) was 100.44 ± 3.93 % of solvent control. The “MTT, Hepatocarcinoma HepG2” value (hepatocarcinoma HepG2 [3]; 200 μM) was 100.86 ± 6.41 % of solvent control, the “MTT, Hepatocarcinoma HepG2” value (hepatocarcinoma HepG2 [3]; 250 μM) was 93.16 ± 1.71 % of solvent control and the “LDH, Hepatocarcinoma HepG2” value (hepatocarcinoma HepG2 [4]; 100 μM) was 5.38 percentage of positive control. The “LDH, Hepatocarcinoma HepG2” value (hepatocarcinoma HepG2 [4]; 150 μM) was 4.90 percentage of positive control, the “LDH, Hepatocarcinoma HepG2” value (hepatocarcinoma HepG2 [4]; 200 μM) was 12.16 percentage of positive control and the “LDH, Hepatocarcinoma HepG2” value (hepatocarcinoma HepG2 [4]; 250 μM) was 19.02 percentage of positive control. The “MTT, Neuroblastoma SH-SY5Y” value (neuroblastoma SH-SY5Y [5]; 100 μM) was 99.79 ± 5.34 % of solvent control, the “MTT, Neuroblastoma SH-SY5Y” value (neuroblastoma SH-SY5Y [5]; 150 μM) was 99.86 ± 3.76 % of solvent control and the “MTT, Neuroblastoma SH-SY5Y” value (neuroblastoma SH-SY5Y [5]; 200 μM) was 99.79 ± 3.97 % of solvent control. For the same compound, the “MTT, Neuroblastoma SH-SY5Y” value (neuroblastoma SH-SY5Y [5]; 250 μM) was 99.11 ± 3.66 % of solvent control, the “LDH, Neuroblastoma SH-SY5Y” value (neuroblastoma SH-SY5Y [6]; 100 μM) was 6.19 percentage of positive control and the “LDH, Neuroblastoma SH-SY5Y” value (neuroblastoma SH-SY5Y [6]; 150 μM) was 4.90 percentage of positive control. The “LDH, Neuroblastoma SH-SY5Y” value (neuroblastoma SH-SY5Y [6]; 200 μM) was 8.35 percentage of positive control and the “LDH, Neuroblastoma SH-SY5Y” value (neuroblastoma SH-SY5Y [6]; 250 μM) was 13.41 percentage of positive control.
